Values after ≈ are worked out from the molar mass of the structure shown. Numbered stars: 1 amine (or outer) side, 2 acyl side, 3 side chain; on linkers, the order of the positions; unused ones are H or OH. Square brackets hold non-standard residues; d marks the D form. Peptide text beside a SMILES is read from it. * marks the point of attachment. ξ: configuration not given here. boroAla((+)-pinanediol) = C[C@H](N*)B1O[C@@H]2C[C@@H]3C[C@@H](C3(C)C)[C@]2(C)O1; Biphenylcarbonyl(4'-Bu) = CCCCc1ccc(-c2ccc(C(=O)*)cc2)cc1; X1 = C[C@H](N*)B1OC2C[C@@H]3C[C@@H](C3(C)C)[C@]2(C)O1; Benzoyl(4-(4-Cl-Ph)) = O=C(c1ccc(-c2ccc(Cl)cc2)cc1)*; ξPro(4S-NH2) = O=C(C1C[C@H](N[*:3])CN1[*:1])[*:2]; ξ3Amino2oxobutanoyl = CC(N[*:1])C(=O)C(=O)[*:2]; Benzoyl(4-hexyl) = CCCCCCc1ccc(C(=O)*)cc1; NMeThr(3ξ) = CN[C@H](C(=O)O)C(C)O; X9 = COC(=O)CN1C[C@@H](N*)C1=O; Tle = CC(C)(C)[C@H](N)C(=O)O; Lauroyl = CCCCCCCCCCCC(=O)*; boroAla = C[C@H](N*)B(O)O; Orn = NCCC[C@H](N)C(=O)O; Dab = NCC[C@H](N)C(=O)O; Abu = CC[C@H](N)C(=O)O; Ac3c = NC1(C(=O)O)CC1; boroGly = OB(O)CN*; βAla = NCCC(=O)O
Assays:
S. aureus SPase = S. aureus SPase (Staphylococcus aureus, UniProt P0A070); assay: biochemical
E. coli SPase = E. coli SPase (Escherichia coli, UniProt P00803); assay: Biochemical SPase activity assay (fluorogenic peptide substrate), E. coli enzyme
[1] = system: Escherichia coli strain MC4100 IMP-4213, which harbors an LptD mutation; conditions: Method B; E. coli MC4100 IMP-4213 (LptD mutation); 35° C., 22 hours
Protocol: In vitro antimicrobial activity of each compound was determined by measuring minimal inhibitor concentrations (MICs) using the broth micro-dilution technique as approved by the Clinical and Laboratory Standards Institute (CLSI). […] Bacterial inocula were prepared by scraping cells into 1 mL of testing media (cation adjusted Mueller Hinton Broth supplemented with 0.002% v/v Tween-80) and diluting to a final OD600 nm of 0.01.
Test compounds were prepared in DMSO at a concentration of 10 mg/ml. […] Bacterial inocula were added to the two fold serial dilutions of test compounds to a final density of OD OD600 nm of 0.0005 and incubated stationarily at 35° C. for 22 hours, after which the plates were examined visually.

[2] = system: methicillin resistant Staphylococcus aureus (MRSA) strain USA300 (NRS384); conditions: Method B, 35° C., 22 hours

Structure (SMILES) | IC50 (S. aureus SPase) | IC50 (E. coli SPase) | MIC (μg/mL) E. coli [1] | MIC (μg/mL) S. aureus [2]
CCCCCCc1ccc(C(=O)N[C@H](CO)C(=O)N[C@H](C)C(=O)NCC(=O)N(C)[C@H](C(=O)N[C@@H](C)C(=O)N[C@@H](CC(N)=O)C(=O)NC(C)C(=O)C(=O)NC)C(C)O)cc1 (stereo partly drawn) [Compound 113] ({Benzoyl(4-hexyl)}-[dS][dA]G[NMeThr(3ξ)]AN[ξ3Amino2oxobutanoyl]-NHMe) | 470 nM | – | – | –
CCCCCCc1ccc(C(=O)N[C@H](CO)C(=O)N[C@H](C)C(=O)NCC(=O)N(C)[C@H](C(=O)N[C@@H](C)C(=O)N[C@@H](CC(C)C)C(=O)NC(C)C(=O)C(=O)NC)C(C)O)cc1 (stereo partly drawn) [Compound 114] ({Benzoyl(4-hexyl)}-[dS][dA]G[NMeThr(3ξ)]AL[ξ3Amino2oxobutanoyl]-NHMe) | 390 nM | – | – | –
CCCCCCc1ccc(C(=O)N[C@H](CO)C(=O)N[C@H](C)C(=O)NCC(=O)N(C)[C@H](C(=O)N[C@@H](C)C(=O)N[C@@H](CC(C)C)C(=O)NCB(O)O)C(C)O)cc1 (stereo partly drawn) [Compound 125] ({Benzoyl(4-hexyl)}-[dS][dA]G[NMeThr(3ξ)]AL-boroGly) | 55 nM | 730 nM | – | –
CCCCc1ccc(-c2ccc(C(=O)N[C@@H](CCCCN)C(=O)N[C@H](C(=O)N[C@@H](C)C(=O)N[C@@H](CC(N)=O)C(=O)N[C@@H](C)B3O[C@@H]4C[C@@H]5C[C@@H](C5(C)C)[C@]4(C)O3)[C@@H](C)O)cc2)cc1 [Compound 129] ({Biphenylcarbonyl(4'-Bu)}-KTAN-{boroAla((+)-pinanediol)}) | 140 nM | 14 nM | 0.91 µg/mL (≈ 1.04 µM) | 0.74 µg/mL (≈ 0.847 µM)
CCCCc1ccc(-c2ccc(C(=O)N[C@@H](CCCCN)C(=O)N[C@H](C(=O)N[C@@H](C)C(=O)N[C@@H](CC(N)=O)C(=O)N[C@@H](C)B(O)O)[C@@H](C)O)cc2)cc1 [Compound 131] ({Biphenylcarbonyl(4'-Bu)}-KTAN-boroAla) | 98 nM | 19 nM | 0.44 µg/mL (≈ 0.595 µM) | 0.45 µg/mL (≈ 0.608 µM)
CCCCc1ccc(-c2ccc(C(=O)N[C@@H](CCCCN)C(=O)N[C@H](C(=O)N[C@@H](C)C(=O)N[C@@H](CCCCN)C(=O)N[C@@H](C)B3OC4C[C@@H]5C[C@@H](C5(C)C)[C@]4(C)O3)[C@@H](C)O)cc2)cc1 (stereo partly drawn) [Compound 132] ({Biphenylcarbonyl(4'-Bu)}-KTAK-X1) | 77 nM | 24 nM | 1 µg/mL (≈ 1.13 µM) | 0.21 µg/mL (≈ 0.236 µM)
CCCCc1ccc(-c2ccc(C(=O)N[C@@H](CCCCN)C(=O)N3CCC[C@H]3C(=O)N[C@@H](C)C(=O)N[C@@H](CC(N)=O)C(=O)N[C@@H](C)B3O[C@@H]4C[C@@H]5C[C@@H](C5(C)C)[C@]4(C)O3)cc2)cc1 [Compound 133] ({Biphenylcarbonyl(4'-Bu)}-KPAN-{boroAla((+)-pinanediol)}) | 170 nM | 15 nM | 0.79 µg/mL (≈ 0.908 µM) | 1.4 µg/mL (≈ 1.61 µM)
CCCCc1ccc(-c2ccc(C(=O)N[C@@H](CCCCN)C(=O)N[C@@H](CCCCN)C(=O)N[C@@H](C)C(=O)N[C@@H](CC(N)=O)C(=O)N[C@@H](C)B3O[C@@H]4C[C@@H]5C[C@@H](C5(C)C)[C@]4(C)O3)cc2)cc1 [Compound 134] ({Biphenylcarbonyl(4'-Bu)}-KKAN-{boroAla((+)-pinanediol)}) | 120 nM | 8.7 nM | 1.4 µg/mL (≈ 1.55 µM) | 0.87 µg/mL (≈ 0.966 µM)
CCCCc1ccc(-c2ccc(C(=O)N[C@@H](CCCCN)C(=O)N[C@@H](Cc3c[nH]cn3)C(=O)N[C@@H](C)C(=O)N[C@@H](CC(N)=O)C(=O)N[C@@H](C)B(O)O)cc2)cc1 [Compound 136] ({Biphenylcarbonyl(4'-Bu)}-KHAN-boroAla) | 39 nM | 14 nM | 1 µg/mL (≈ 1.29 µM) | 1.4 µg/mL (≈ 1.8 µM)
CCCCc1ccc(-c2ccc(C(=O)N[C@@H](CCCCN)C(=O)NC3(C(=O)N[C@@H](C)C(=O)N[C@@H](CCCCN)C(=O)N[C@@H](C)B4OC5C[C@@H]6C[C@@H](C6(C)C)[C@]5(C)O4)CC3)cc2)cc1 (stereo partly drawn) [Compound 137] ({Biphenylcarbonyl(4'-Bu)}-K[Ac3c]AK-X1) | 26000 nM | 1200 nM | 23 µg/mL (≈ 26.4 µM) | 16 µg/mL (≈ 18.4 µM)
CCCCc1ccc(-c2ccc(C(=O)N[C@@H](Cc3c[nH]c4ccccc34)C(=O)N[C@H](C(=O)N[C@@H](C)C(=O)N[C@@H](CCCCN)C(=O)N[C@@H](C)B3OC4C[C@@H]5C[C@@H](C5(C)C)[C@]4(C)O3)[C@@H](C)O)cc2)cc1 (stereo partly drawn) [Compound 138] ({Biphenylcarbonyl(4'-Bu)}-WTAK-X1) | 1100 nM | 1000 nM | >64 µg/mL | 5 µg/mL (≈ 5.29 µM)
CCCCc1ccc(-c2ccc(C(=O)N3C[C@@H](N)CC3C(=O)N[C@H](C(=O)N[C@@H](C)C(=O)N[C@@H](CC(N)=O)C(=O)N[C@@H](C)B3OC4C[C@@H]5C[C@@H](C5(C)C)[C@]4(C)O3)[C@@H](C)O)cc2)cc1 (stereo partly drawn) [Compound 139] ({Biphenylcarbonyl(4'-Bu)}-[ξPro(4S-NH2)]TAN-X1) | 8.5 nM | 3.4 nM | 2 µg/mL (≈ 2.33 µM) | 1 µg/mL (≈ 1.17 µM)
CCCCc1ccc(-c2ccc(C(=O)N[C@@H](CCCCN)C(=O)N[C@H](C(=O)N[C@@H](C)C(=O)N[C@@H](CCN)C(=O)N[C@@H](C)B3O[C@@H]4C[C@@H]5C[C@@H](C5(C)C)[C@]4(C)O3)[C@@H](C)O)cc2)cc1 [Compound 140] ({Biphenylcarbonyl(4'-Bu)}-KTA[Dab]-{boroAla((+)-pinanediol)}) | 52 nM | 50 nM | 8 µg/mL (≈ 9.3 µM) | 1 µg/mL (≈ 1.16 µM)
CCCCCCCCCCCC(=O)N[C@@H](CCCCN)C(=O)N[C@H](C(=O)N[C@@H](C)C(=O)N[C@@H](CCCCN)C(=O)N[C@@H](C)B1OC2C[C@@H]3C[C@@H](C3(C)C)[C@]2(C)O1)[C@@H](C)O (stereo partly drawn) [Compound 141] (Lauroyl-KTAK-X1) | 23 nM | 33 nM | 5.7 µg/mL (≈ 6.83 µM) | 0.79 µg/mL (≈ 0.947 µM)
CCCCc1ccc(-c2ccc(C(=O)N[C@@H](CCCN)C(=O)N[C@H](C(=O)N[C@@H](C)C(=O)N[C@@H](CCCCN)C(=O)N[C@@H](C)B3OC4C[C@@H]5C[C@@H](C5(C)C)[C@]4(C)O3)[C@@H](C)O)cc2)cc1 (stereo partly drawn) [Compound 142] ({Biphenylcarbonyl(4'-Bu)}-[Orn]TAK-X1) | 34 nM | 15 nM | 0.5 µg/mL (≈ 0.572 µM) | 0.22 µg/mL (≈ 0.252 µM)
CCCCc1ccc(-c2ccc(C(=O)N[C@@H](Cc3c[nH]cn3)C(=O)N[C@H](C(=O)N[C@@H](C)C(=O)N[C@@H](CCCCN)C(=O)N[C@@H](C)B3OC4C[C@@H]5C[C@@H](C5(C)C)[C@]4(C)O3)[C@@H](C)O)cc2)cc1 (stereo partly drawn) [Compound 143] ({Biphenylcarbonyl(4'-Bu)}-HTAK-X1) | 180 nM | 250 nM | 5.7 µg/mL (≈ 6.35 µM) | 0.35 µg/mL (≈ 0.39 µM)
CCCCc1ccc(-c2ccc(C(=O)N[C@@H](CCCCN)C(=O)N[C@H](C(=O)N[C@@H](CC)C(=O)N[C@@H](CC(N)=O)C(=O)N[C@@H](C)B3O[C@@H]4C[C@@H]5C[C@@H](C5(C)C)[C@]4(C)O3)[C@@H](C)O)cc2)cc1 [Compound 144] ({Biphenylcarbonyl(4'-Bu)}-KT[Abu]N-{boroAla((+)-pinanediol)}) | 36 nM | 18 nM | 0.25 µg/mL (≈ 0.282 µM) | 0.25 µg/mL (≈ 0.282 µM)
CC(C)C[C@H](NC(=O)[C@H](C)NC(=O)[C@H](CCCCN)NC(=O)[C@H](CCCCN)NC(=O)c1ccc(-c2ccc(Cl)cc2)cc1)C(=O)N[C@@H](C)B1OC2C[C@@H]3C[C@@H](C3(C)C)[C@]2(C)O1 (stereo partly drawn) [Compound 145] ({Benzoyl(4-(4-Cl-Ph))}-KKAL-X1) | 240 nM | 39 nM | 5 µg/mL (≈ 5.69 µM) | 3.2 µg/mL (≈ 3.64 µM)
CC(C)C[C@H](NC(=O)[C@H](C)NC(=O)[C@H](CCCCN)NC(=O)[C@H](CCCCN)NC(=O)c1ccc(-c2ccc(Cl)cc2)cc1)C(=O)N[C@@H](C)B(O)O [Compound 155] ({Benzoyl(4-(4-Cl-Ph))}-KKAL-boroAla) | 250 nM | 39 nM | – | –
CCCCc1ccc(-c2ccc(C(=O)NCCC(=O)N[C@@H](CCCCN)C(=O)N[C@H](C(=O)N[C@@H](C)C(=O)N[C@H](C(=O)N[C@@H](C)B3OC4C[C@@H]5C[C@@H](C5(C)C)[C@]4(C)O3)C(C)(C)C)[C@@H](C)O)cc2)cc1 (stereo partly drawn) [Compound 211] ({Biphenylcarbonyl(4'-Bu)-βAla}-KTA[Tle]-X1) | 36 nM | – | 32 µg/mL (≈ 33.9 µM) | 0.71 µg/mL (≈ 0.752 µM)
CCCCc1ccc(-c2ccc(C(=O)N[C@@H](CCCCN)C(=O)N3CCC[C@H]3C(=O)N[C@@H](C)C(=O)N[C@@H](CCCCN)C(=O)N[C@@H]3CN(CC(=O)OC)C3=O)cc2)cc1 [Compound 258] ({Biphenylcarbonyl(4'-Bu)}-KPAK-X9) | 50000 nM | – | 23 µg/mL (≈ 28.1 µM) | >64 µg/mL
CCCCc1ccc(-c2ccc(CN[C@@H](CCN)C(=O)N[C@H](C(=O)N[C@@H](C)C(=O)N[C@@H](CCCCN)C(=O)N[C@@H](C)B(O)O)[C@@H](C)O)cc2)cc1 [Compound 267] | 33 nM | 11 nM | – | –
CCCCc1ccc(-c2ccc(C(=O)N[C@@H](CCN)C(=O)N[C@H](C(=O)N[C@@H](C)C(=O)N[C@@H](CCCCN)C(=O)N[C@@H](C)B(O)O)[C@@H](C)O)cc2)cc1 [Compound 267] ({Biphenylcarbonyl(4'-Bu)}-[Dab]TAK-boroAla) | – | – | – | 0.13 µg/mL (≈ 0.179 µM)
